Values quoted from earlier work as cited in patent US20220000967A1, “SYNTHETIC PEPTIDES INDUCING IMMUNOGENIC CELL DEATH” (SORBONNE UNIVERSITE, priority 2018, published 2022).

System: murine B78 melanoma cells
Settings: melphalan killed B78 cells injected, re-challenged 10 days later with B78 viable cells; cited from earlier work

Structure (SMILES): N[C@@H](Cc1ccc(N(CCCl)CCCl)cc1)C(=O)O [melphalan]
- mice without tumor: 40%
